Row | melting point | SMILES
1 | 179 to 182 °C | COc1ccc(S(=O)(=O)n2ccc3ccnc(-c4ccc(O)cc4)c32)cc1
2 | 199 to 201 °C | COc1c(Cc2ccccc2)cc(C(N)=O)c2ccccc12
3 | 220 to 221 °C | CN1CCN(c2ccc(-c3ccc4c(c3)C=C(C(=O)Nc3ccc(CN(C)C5CCOCC5)cc3)CCO4)cc2)CC1
4 | 242 to 244 °C | Cc1c(-c2ccccc2)n(-c2ccc(S(C)=O)cc2)c(-c2ccccc2)cc1=O (stereo not given)
5 | 101 to 103 °C | CC(C)CNCc1cnc2[nH]c(-c3cc(OCc4ccccc4)ccc3OC(C)C)nc2c1
6 | 141 to 143 °C | Cc1c(SCCN2CCOCC2)ccnc1CSc1nc2ccccc2n1CCO
7 | 155 to 159 °C | Cc1cc(O)c(Oc2ccccc2C#N)cc1-c1ccsc1
8 | > 220 °C | O=c1nc(CN2CCC[C@H](OCc3cc(Cl)cc(Cl)c3)[C@@H]2c2ccccc2)[nH][nH]1
9 | 139 to 140 °C | Cc1oc(-c2ccccc2)nc1COc1ccc2cc(CCCc3nnn[nH]3)oc2c1
10 | 202 to 205 °C | O=C(Nc1ccccc1)Nc1cccc(-c2c(-c3ccccc3)cnc3c(C(F)(F)F)cccc23)c1
11 | 255 to 256 °C | Cc1nc(-n2cnn(CC(=O)Nc3ccc(Cl)cc3)c2=O)sc1C(=O)NCc1cccnc1
12 | 215 °C | COc1cc(CN2CCC(=C3c4ccccc4CCn4ccnc43)CC2)cc(OC)c1OCc1ccc2ccccc2n1
13 | 211 to 212 °C | CC(C)(C)c1ccc(Sc2ccc(C=C3SC(=S)NC3=O)cc2)cc1
14 | 276 to 278 °C | O=c1[nH]c2cc(Cl)c(Cl)cc2[n+]([O-])c1-c1ccc(O)cc1
15 | > 350 °C | O=C(O)c1ccc2c(c1)C(=O)C(c1nc3ccccc3cc1O)C2=O (stereo not given)
16 | 212 to 213 °C | CS(=O)(=O)Nc1cc2occ(Nc3ccccc3)c(=O)c2cc1Oc1ccccc1
17 | 286 °C | CCC(=O)Nc1ccc(CN2C(=O)[C@H]3CCC[C@H]3N(C(=O)CN3C(=O)c4ccccc4C3=O)c3ccccc32)cc1 (relative stereo)
18 | 164 to 165 °C | FC(F)(F)c1cccc(CSc2nnc(-c3ccnc4[nH]ccc34)o2)c1
19 | 110 to 112 °C | Cc1nc(NCc2ccccn2)c2c(-c3ccccc3)csc2n1
20 | 197 to 198 °C | CSc1ccc(-c2n[nH]c(=O)cc2-c2ccc(F)cc2)cc1
21 | 97 to 98 °C | CN(Cc1cc2c3c(c1)c(=O)c(C(=O)NCc1ccc(Cl)cc1)cn3CC(=O)N2C)C[C@@H](O)c1cnccn1
22 | 148 to 149 °C | CCC(O)c1ccc(Cc2c(Cl)cc(N3N=CCNC3=O)cc2Cl)cc1 (stereo not given)

Row | melting point | SMILES
23 | 234 to 236 °C | O=C(c1ccccc1)N1Cc2c(-c3noc(C4CC4)n3)ncn2-c2cccc(F)c21
24 | 102 to 106 °C | CC(C)(c1ccccc1)n1nnc(-c2ccccc2-c2ccc(C3OCCCO3)cc2)n1
25 | 121 to 122 °C | CCOP(=O)(/C=C/c1cn(-c2ccccc2)nc1OCc1ccc(OCc2nc(-c3ccc(C)c(C(=O)OC)c3)oc2C)c(OC)c1)OCC
26 | 237 °C | Cc1c(Cl)ccc2c3cccc(C(=O)O)c3n(C)c12
27 | 175 to 177 °C | Cn1ncc(-c2ccc3c(c2)c(C2=CCN(CCN4CCNC4=O)CC2)cn3-c2ccc(F)cc2)n1
28 | 214 °C | O=C(O)CNC(=O)N1CCc2cc(S(=O)(=O)N3CCN(c4cccc(Cl)c4)CC3)ccc21
29 | 83 to 88 °C | COC(=O)C(CO)N(Cc1cc(F)ccc1[N+](=O)[O-])S(=O)(=O)c1ccc(OC)cc1 (stereo not given)
30 | 78 to 81 °C | CC(=O)NC(CO)CCc1ccc(Sc2cccc(OCc3ccccc3)c2)cc1Cl (stereo not given)
31 | 71 to 74 °C | COc1cccc(Oc2ncccc2C(=O)NCc2ccccc2Cl)c1
32 | 173 to 176 °C | Cc1ccc(-c2ccccn2)cc1S(N)(=O)=O
33 | > 250 °C | Cc1ccc2c(c1)C=Cc1ncccc1C2c1c[nH]c(=O)[nH]c1=S (stereo not given)
34 | 148 to 150 °C | Cc1cc(C)c2cccc(OCc3c(Cl)ccc(S(=O)(=O)N4CCC[C@H]4C(=O)N4CCN(C(=O)c5ccc(C(N)=NO)cn5)CC4)c3Cl)c2n1
35 | 125 °C | COc1cccc(C(=O)N[C@H]2C[C@@H](c3cc(NC(=O)Cc4cccc5ccccc45)n[nH]3)C2)c1
36 | 231 to 233 °C | Cn1nc(-c2nc(S(C)(=O)=O)c(N)nc2-c2ccccc2)ccc1=O
37 | 117 to 119 °C | Cn1nc(NC2c3cc(C#N)ccc3OC(C)(C)C2O)ccc1=O (stereo not given)
38 | 186 to 188 °C | O=C(Nc1cccc(F)c1)NC1CCN(S(=O)(=O)c2ccccc2)CC1
39 | 128 to 129 °C | CCOc1ccc(C(=O)c2csc(-c3ccc(OCC)c(OCC)c3)n2)cc1OCC
40 | 284 to 286 °C | CC(C)(C)c1ccc(-c2nnc(-c3ccc(C(=O)O)cc3)o2)cc1
41 | 269 to 272 °C | OC1c2ccccc2-c2[nH]nc(-c3ccccc3)c21 (stereo not given)
42 | 84 to 94 °C | CCOC(=O)c1c(N2CCN(C(=O)c3cccs3)CC2)c2cccnc2n(CCCN(C)C)c1=O
43 | 208 to 209 °C | CC(C)n1nc(-c2cc(-c3ccccc3)c(N)nc2-c2ccccc2)ccc1=O

Second part, the molecule before the results:

Row | SMILES | melting point
44 | CC(=O)Nc1cc(Cl)ccc1OCC#N | 146 to 149 °C
45 | CCC(O)c1c(C)nc2ccccc2c1N (stereo not given) | 220 to 230 °C
46 | CC(C)C1=C(C#N)C(c2ccccc2Br)c2c(n[nH]c2CC#N)N1 (stereo not given) | > 250 °C
47 | BrCCCCOc1ccc2c(c1)OCO2 | 52 to 54 °C
48 | O=S(=O)(c1ccccc1)n1ccnc1 | 82 to 83 °C
49 | CCCNC(=O)N1C2=NC(C)(C)N(CCC)C(=O)N2c2ccccc21 | 72 to 74 °C
50 | COC(=O)c1cccc(/C=C/c2cccc(Br)c2)c1 | 79 to 84 °C
51 | Cc1cc(C)cc(Oc2nc(Cl)nc(Cl)c2C(C)C)c1 | 107 to 108 °C
52 | C#CCN1C(=O)COc2ccc(-n3c(OC)nc(C(F)(F)F)cc3=O)cc21 | 218 to 220 °C
53 | CCCc1cc2cc(NC(=O)OCC)ccc2o1 | 69 to 70 °C
54 | COC(=O)Cc1sc(=O)[nH]c1/C=C/c1ccccc1 | 164 °C
55 | CN(c1nc(=O)n(C)cc1F)S(=O)(=O)Cc1ccccc1 | 159 to 160 °C
56 | CCOC(=O)c1cc(CC)sc1Nc1cc(F)ccc1N | 100 to 101 °C
57 | COC(=O)c1cc(=O)c2c(C)cc(Br)cc2[nH]1 | 258 to 259 °C
58 | Cc1nc(C=Cc2nc3ccc(F)cc3c(=O)n2-c2ccccc2Br)cs1 | 233 to 234 °C
59 | C(=Cc1c[nH]cn1)CC(c1ccccc1)c1ccccc1 | > 240 °C
60 | COc1c(C)cccc1CC(N)(CF)C(N)=O (stereo not given) | 118 °C
61 | Cc1nc(N)nc(N)c1/C=C/C(C)(C)c1ccc(C(F)(F)F)cc1 | 182 to 185 °C
62 | CCCCCCCCCCCCNC(=O)c1cc(Br)c(OCCn2cnnn2)c(-c2cccc(OC)c2)c1 | 100 to 101 °C

Row | SMILES | melting point
63 | O=[N+]([O-])CS(=O)(=O)c1ccc2c(c1)CCN2 | 139 °C
64 | NC(=NCC(F)(F)F)Nc1ccnc(OCCn2ccnc2)n1 | 149 to 150 °C
65 | CCCCNC(=O)ON1C(C)(C)CC(OC(=O)c2cccc(C(=O)OC3CC(C)(C)N(OC(=O)NCCCC)C(C)(C)C3)c2)CC1(C)C | 176 to 177 °C
66 | COc1cc(C(C)C)c2c(c1)S(=O)(=O)NC2=O | 188 °C
67 | CNc1ccc2cnc(C(=O)c3ccc([N+](=O)[O-])c(C(=O)OC)c3)n2c1 | 183 °C
68 | C[C@H]1C[C@@](O)(c2cnc(Sc3ccc4c(c3)CC(=O)N4C)s2)CCO1 | 140 °C
69 | CC(C)CN(C(=O)N(CCCl)N=O)C1(O)C(OC2CCCCC2)OC(CO)C1O (stereo not given) | 70 to 72 °C
70 | C#CCn1c(-c2cc(Cl)nc(Cl)c2)nc(O)c(CC)c1=O | 200 to 202 °C
71 | COC(=O)c1ccc(NC(=O)c2cc(C(C)C)c(C(C)C)s2)cc1 | 180 to 182 °C
72 | Cc1c(C(F)(F)F)nn(C)c1O | 148 to 151 °C
73 | O=C(NC(=O)c1c(F)cccc1Cl)Nc1ccc(S(=O)C(F)(F)C(F)F)cc1F (stereo not given) | 213 to 216 °C
74 | CC1(C(=O)Nc2ccc(OCC3CC3)c(C(F)(F)F)c2)CC1 | 84 to 85 °C
75 | CCc1sc2ccccc2c1C(=O)O | 136 °C
76 | CCOCc1nc2c(N)nc3c4c2n1[C@@H](C)CN4CCC3 | 164 to 166 °C
77 | CCOC(=O)CNC(=O)CCCOc1ccc2nc3[nH]c(=O)[nH]c3cc2c1 | 274 to 276 °C
78 | COc1ccc(Nc2ncnc3occ(C)c23)cc1 | 99 to 102 °C
79 | CN1C2CCC1CC(O)(c1ccc(Cl)cc1)C2 (stereo not given) | 186 to 187 °C
80 | COC(=O)C1=C(C)NC2(O)COC(=O)C2C1c1cccc([N+](=O)[O-])c1 (stereo not given) | 147 to 149 °C
81 | Cc1ccccc1NS(=O)(=O)c1ccc(Br)cc1 | 114 °C

Row | SMILES | melting point
82 | COc1cc(CCc2c(/C=C/[N+](=O)[O-])ccc(OC)c2OC)cc(OC)c1 | 95 to 96 °C
83 | CC(C)(C)OC(=O)c1ccc(C(=O)O)cc1 | 100 to 102 °C
84 | Cc1nc2cccc(N)c2s1 | 100 to 101 °C
85 | O=C1NC(=O)C(S(=O)(=O)c2ccc3ccccc3n2)S1 (stereo not given) | 168 to 169 °C
86 | CCOCCN(CCOCC)NC(=O)NS(=O)(=O)c1ccc(Cl)cc1 | 84.5 to 85.5 °C
87 | O=c1ccccn1C1=CC(CF)(CF)Oc2ccc(C(F)(F)C(F)(F)F)cc21 | 137 to 138 °C
88 | c1ccc2c(c1)CNc1ccccc1C2 | 117 to 122 °C
89 | CC(C)c1c(Sc2ccccc2)n(CC2=CCC(CO)C2)c(=O)[nH]c1=O (stereo not given) | 166 to 168 °C
90 | COc1ccc2ncc(S(=O)(=O)N(C)C)c(O)c2c1 | > 300 °C
91 | CC(C)(C)OC(=O)NCCCC(=O)NCc1cccc2c1CN(C1CCC(=O)NC1=O)C2=O (stereo not given) | 199 to 201 °C
92 | Cc1ncc2c(c1OCC(=O)O)COC2c1ccc(Cl)cc1 (stereo not given) | 226 to 230 °C
93 | c1cnc2cc[nH]c2c1 | 126 to 128 °C
94 | COc1cc(OC)nc(C2OC(=O)c3ncccc32)n1 (stereo not given) | 167 to 168 °C
95 | CN1Cc2c(C#N)ncn2-c2cccc(Cl)c2C1=O | 238 to 240 °C
96 | COC(=O)NC1CCc2ccc(Cl)cc2C1=O (stereo not given) | 126 to 127 °C
97 | CCC1(CCn2ccnc2)SCCS1 | 118 to 121 °C
98 | O=C(O)CCc1cccc2c1NC(=O)CC2 | 164 to 165 °C
99 | CSCC(=O)C(Cc1cccc2ccccc12)NC(=O)C(CC(C)C)NC(=O)OCc1ccccc1 (stereo not given) | 77 to 80 °C
100 | Nc1nc(NCCC2CCC3(CC2)OCCO3)nc2c1ncn2C1OC(CO)C(O)C1O (stereo not given) | 133 to 137 °C

Reference: a melting point compilation (Tetko et al.; mined from patent text by program, amines drawn as free bases though some values may be those of a salt)
